From ChEMBL document CHEMBL1857833, “Screening and optimization of specific chemical series against human African Trypanosomiasis (HAT)”
Converted amounts (≈) assume the structure as drawn.

Legend:
[1] = DNDI: Cytotoxicity against L929 mouse fibroblasts, CYTO-SP, 24 hour; assay type: toxicity, cell-based; conditions: mouse, L929 mouse fibroblasts
Trypanosoma brucei [2] = test: DNDI: Inhibition of Human African Trypanosomiasis, SBRI 427, in vitro; assay type: functional, organism-based
Trypanosoma brucei [3] = test: DNDI: Inhibition of Human African Trypanosomiasis, EATRO 110, in vitro; assay type: functional, organism-based
[4] = DNDI: half life in mouse liver microsomes at a concentration of 10uM; assay type: ADME, Microsome
[5] = DNDI: Solubility in phosphate buffered saline at pH7.4 measured by optical density (turbidimetry) at room temperature (OD-RT); assay type: physicochemical; conditions: pH 7.4
[6] = DNDI: in vitro intrinsic clearance in human liver microsomes at a concentration of 10uM; assay type: ADME, Microsome
[7] = DNDI: Lipophilicity measured in Chromatographic hydrophobicity index (CHI) assay, pH 7.4; assay type: physicochemical; conditions: buffer
[8] = DNDI: in vitro intrinsic clearance in mouse liver microsomes at a concentration of 10uM; assay type: ADME, Microsome; conditions: read-out: CLint in vitro
[9] = DNDI: half life in human liver microsomes at a concentration of 10uM; assay type: ADME, Microsome
Trypanosoma brucei [10] = test: (§1) DNDI: Mean survival time in days (MSD) of mice after intraperitoneal injection of Human African Trypanosomiasis (HAT), EATRO 110, in vivo at 20 mg/kg/day for 4 days.; assay type: functional, Mus musculus
[11] = mouse, microsomes, 1 µM
Description: DNDI: in vitro intrinsic clearance in mouse liver microsomes at a concentration of 1uM

Trypanosoma brucei [12] = test: as §1; assay type: functional, Mus musculus; remark: listed apart in the source
[13] = DNDI: Cytotoxicity against L929 mouse fibroblasts, 72 hour.; assay type: toxicity, cell-based; conditions: mouse, L929 mouse fibroblasts
in vitro [14] = conditions: mouse, t (1 / 2)
Description: DNDI: half life in mouse liver microsomes at a concentration of 1uM

[15] = DNDI: Solubility in phosphate buffered saline at pH7.4 measured by nephelometry at room temperature (NEPH-RT); assay type: physicochemical; conditions: pH 7.4
Leishmania donovani = test: DNDI: Inhibition of formation of Leishmania donovani (strain MHOM/ET/67/L82) axenic amastigotes, in vitro.; assay type: functional, organism-based
Plasmodium falciparum = test: DNDI: Inhibition of the malaria parasite Plasmodium falciparum, in vitro; assay type: functional, organism-based; conditions: K1
[16] = system: Trypanosoma brucei rhodesiense; test: DNDI: Inhibition of Human African Trypanosomiasis (HAT), STIB 900, in vitro; assay type: functional, organism-based
[17] = DNDI: Cytotoxicity against L-6 rat myoblasts from skeletal muscle cells; assay type: toxicity, cell-based, L6; conditions: L-6 rat skeletal muscle myoblasts
Trypanosoma cruzi = test: DNDI: Inhibition of Chagas Disease parasite Trypanosoma cruzi (Tulahuen LacZ, Clone C4), in vitro.; assay type: functional, organism-based
[18] = DNDI: % of compound remaining in rat S9 microsomes at a concentration of 1uM; assay type: ADME, subcellular, Liver, S9 fraction
[19] = DNDI: % of compound remaining in mouse S9 microsomes at a concentration of 1uM after 60 mins; assay type: ADME, subcellular, Liver, S9 fraction
in vitro [20] = conditions: human, CLint in vitro
Description: DNDI: in vitro intrinsic clearance in human liver microsomes at a concentration of 1uM

in vitro [21] = conditions: human, t (1 / 2)
Description: DNDI: half life in human liver microsomes at a concentration of 1uM

Trypanosoma brucei [22] = test: DNDI: Inhibition of Human African Trypanosomiasis, Cross 22, in vitro; assay type: functional, organism-based
[23] = Trypanosoma brucei, SBRI 427, read-out: IC50

| SMILES | IC50 at 24 h [1] [µg/mL] | IC50 (Trypanosoma brucei [2]; [23]) [µg/mL] | IC50 (Trypanosoma brucei [3]) [µg/mL] | chromatographic logD [7] | MSD (Trypanosoma brucei [10]) [days] | CLint in vitro [11] [µL/min/mg] | MSD (Trypanosoma brucei [12]) [days] | IC50 at 72 h [13] [µg/mL] | half-life at 1 µM (in vitro [14]; liver microsomes) [min] | solubility kinetic [15] [µM] | IC50 (Leishmania donovani) [µg/mL] | IC50 (Plasmodium falciparum) [µg/mL] | IC50 [16] [µg/mL] | IC50 [17] [µg/mL] | IC50 (Trypanosoma cruzi) [µg/mL] | also measured |
| --- | --- | --- | --- | --- | --- | --- | --- | --- | --- | --- | --- | --- | --- | --- | --- | --- |
| O/N=C(\NC1CCCCC1)c1cccnc1Oc1ccccc1Br | > 50 | 1.13 (≈ 2.9 µM) | 1.56 (≈ 4 µM) |  |  |  |  |  |  |  |  |  |  |  |  |  |
| CCc1ccccc1Oc1ncccc1/C(=N\O)NC1CCCCC1 | > 50 | 0.79 (≈ 2.33 µM) | 2.15 (≈ 6.33 µM) | 4.31 |  |  |  |  |  |  |  |  |  |  |  | half-life at 10 µM [4]: 21 min; solubility kinetic [5]: 6.3 µM (≈ 2.14 µg/mL); CLint in vitro [6]: 27 µL/min/mg; microsomal CLint at 10 µM [8]: 140 µL/min/mg; half-life at 10 µM [9]: 106 min |
| CCCCCC(C)NCc1coc(-c2ccccc2Oc2ccccc2)n1 (stereo unspecified) |  | 2.98 (≈ 8.18 µM) |  |  | 5 | 220 | 4 | 6.3 (≈ 17.3 µM) | 4 |  |  |  |  |  |  |  |
| CCCCCOc1ccc(-c2nc(CN[C@@H]3C[C@@H]4C[C@H]([C@H]3C)C4(C)C)co2)cc1 | 38.9 (≈ 98.1 µM) | 0.12 (≈ 0.303 µM) |  | 6.5 | 4.5 | 60 |  | < 3.13 | 14 | 2 (≈ 0.793 µg/mL) |  |  |  |  |  |  |
| CC1CC(NCc2coc(-c3ccc(OC(C)C)cc3)n2)CC(C)(C)C1 (stereo unspecified) |  | 0.79 (≈ 2.22 µM) |  |  | 3.5 | 26 | 4 | 1.51 (≈ 4.24 µM) | 33 |  |  |  |  |  |  |  |
| O/N=C(/NC1CCCCC1)c1cccnc1Oc1ccccc1F | > 50 | 0.58 (≈ 1.76 µM) | 1.5 (≈ 4.55 µM) | 3.99 |  |  |  | > 10 |  |  | 19.9 (≈ 60.5 µM) | > 5 | 20.8 (≈ 63.1 µM) | 54.3 (≈ 165 µM) | > 30 | half-life at 10 µM [4]: 10 min; solubility kinetic [5]: 50 µM (≈ 16.5 µg/mL); CLint in vitro [6]: 16 µL/min/mg; microsomal CLint at 10 µM [8]: 275 µL/min/mg; half-life at 10 µM [9]: 185 min |
| CSc1ccccc1Oc1ncccc1/C(=N\O)NC1CCCCC1 | > 50 | 0.62 (≈ 1.73 µM) | 1.34 (≈ 3.75 µM) |  |  |  |  |  |  |  |  |  |  |  |  |  |
| COc1ccc(/C(=N/O)Nc2cccc(C(F)(F)F)c2)cc1 |  |  |  | 3.67 | 5 | 319 | 5 | 8.11 (≈ 26.1 µM) | 3 | 25 (≈ 7.76 µg/mL) |  |  |  |  |  | remaining at 1 µM [18]: 0%; remaining at 1 h, 1 µM [19]: 0% |
| CCCCc1ccc(-c2nc(CNC[C@@H]3CC[C@H]4C[C@@H]3C4(C)C)co2)cc1 | > 50 |  |  | 6.68 |  |  | 3.5 | > 10 |  | 3 (≈ 1.1 µg/mL) | 4.84 (≈ 13.2 µM) | 0.389 (≈ 1.06 µM) | 0.361 (≈ 0.985 µM) | 2.89 (≈ 7.88 µM) | 2.61 (≈ 7.12 µM) | microsomal CLint at 1 µM (in vitro [20]; liver microsomes): 22 µL/min/mg; half-life at 1 µM (in vitro [21]; liver microsomes): 39 min; IC50 (Trypanosoma brucei [22]): 0.31 µg/mL (≈ 0.846 µM) |
| COc1cc(C)ccc1Oc1ncccc1/C(=N/O)NC1CCCCC1 | > 50 | 0.25 (≈ 0.703 µM) | 0.48 (≈ 1.35 µM) | 4 |  | 76 | 5.5 | > 10 | 11 | 25 (≈ 8.89 µg/mL) | > 90 | > 5 | 57.9 (≈ 163 µM) | 76.2 (≈ 214 µM) | > 30 | half-life at 10 µM [4]: 38 min; solubility kinetic [5]: 25 µM (≈ 8.89 µg/mL); IC50 (Trypanosoma brucei [2]): 0.15 µg/mL (≈ 0.422 µM); remaining at 1 µM [18]: 0.111%; CLint in vitro [6]: 19 µL/min/mg; logD [7]: 4.04; microsomal CLint at 10 µM [8]: 76 µL/min/mg; half-life at 10 µM [9]: 154 min; remaining at 1 h, 1 µM [19]: 18.3% |
| CCCCCOc1ccc(-c2nc(CNC(C)CCCCC)co2)cc1 (stereo unspecified) | 32.4 (≈ 90.4 µM) | 0.33 (≈ 0.92 µM) |  |  |  | 13 |  | < 3.13 | 68 |  |  |  |  |  |  | remaining at 1 µM [18]: 0.555%; remaining at 1 h, 1 µM [19]: 49.7% |
| CCCCc1ccc(-c2nc(CN[C@@H]3C[C@@H]4C[C@H]([C@H]3C)C4(C)C)co2)cc1 | > 50 |  |  | 6.6 |  |  | 3.5 | 0.79 (≈ 2.16 µM) |  | 6 (≈ 2.2 µg/mL) | 4.61 (≈ 12.6 µM) | 0.497 (≈ 1.36 µM) | 0.357 (≈ 0.974 µM) | 3.21 (≈ 8.76 µM) | 1.4 (≈ 3.82 µM) | microsomal CLint at 1 µM (in vitro [20]; microsomes): 10 µL/min/mg; half-life at 1 µM (in vitro [21]; microsomes): 81 min; IC50 (Trypanosoma brucei [22]): 0.57 µg/mL (≈ 1.56 µM); half-life at 1 µM (in vitro [14]; microsomes): 13 min |
